Values quoted from earlier work in patent US9961901B2, “Mectin and milbemycin nanoparticle formulations” (priority 2013, dated 2018).
Read-outs that look alike come from different tables or passages of the source.

Experiments:
[1] = 20° C.
[2] = not given; remark: listed apart in the source

CC[C@H](C)[C@H]1O[C@]2(C=C[C@@H]1C)C[C@@H]1C[C@@H](C/C=C(\C)[C@@H](O[C@H]3C[C@H](OC)[C@@H](O[C@H]4C[C@H](OC)[C@@H](O)[C@H](C)O4)[C@H](C)O3)[C@@H](C)/C=C/C=C3\CO[C@@H]4[C@H](O)C(C)=C[C@@H](C(=O)O1)[C@]34O)O2 [abamectin]
Aqueous Photolysis DT50 (pH 7): DT50: 1.5 d at pH 7 | Solubility, Acetone ([1]; acetone): Acetone: 72,000 mg/L | Solubility, Ethyl Acetate ([1]; ethyl acetate): Ethyl Acetate: 160,000 mg/L | Solubility, Water [1]: Water: 1.21 mg/L | Octanol-Water Coefficient Log P [2]: Log P: 4.4

emamectin
Aqueous Photolysis DT50 (pH 7): DT50: 32 d at pH 7 | Solubility, Methanol [1]: Methanol: 2700 g/L | Solubility, Water [1]: Water: 24 mg/L | Octanol-Water Coefficient Log P [2]: Log P: 5.0

milbemycin
Aqueous Photolysis DT50 (pH 5): DT50: 3 d at pH 5 (aqueous | Solubility, Methanol [1]: Methanol: 251,000 mg/L | Solubility, n-heptane ([1]; n-heptane): n-heptane: 5,060 mg/L | Solubility, Water [1]: Water 3.6 mg/L | Octanol-Water Coefficient Log P [2]: Log P: 6.8
